Key:
H1299 cells [1] = experiment: Wound healing (cell scratch) assay; assay type: cell-based, human; conditions: 24 h
Protocol: H1299 cells were seeded in a 6-well plate. When the cell confluency reached 95%, a wound line was scratched using a 200 μl pipette tip and then washed three times. Then, fresh medium containing 4b or 4c (2, 4 and 8 μM) was added and the plate was incubated at 37 °C with 5% CO2. All images were captured at 0 h and 24 h under an inverted microscope, and the quantification of scratches was analyzed using Image J (https://imagej.net/ij/, accessed on 4 January 2024).

[2] = test system: Bcl-2/caspase3/PARP signaling pathway; experiment: Western blot, apoptosis proteins in H1299 cells; assay type: cell-based, human; conditions: H1299, 4, 8 and 16 μM, 48 h
Protocol: (§1) Firstly, H1299 cells were treated with the different concentrations of 4b and 4c at 4, 8 and 16 μM for 48 h. Then, cells were harvested using RIPA lysate (R0010, Solarbio, Beijing, China) and centrifuged at 12,000× g rpm for 15 min at 4 °C. Following that, the concentration of total protein was measured and taken from the supernatant. Protein was separated by 12% SDS-polyacrylamide gel electrophoresis and transferred to nitrocellulose filter membrane. After blocking in 5% milk for 2 h, the membranes were incubated with a specific primary antibody at 4 °C overnight. The next day, NC membranes were incubated for 1 h at room temperature with appropriate secondary antibodies and then protein bands were visualizing by chemiluminescence detection (ECL kit, Genview, Beijing, China).

H1299 cells [3] = experiment: Transwell migration assay; assay type: cell-based, human; conditions: H1299, 2, 4 and 8 μM, 24 h, vs normal control
Protocol: Transwell assay was used to determine the migration ability of H1299 cells. Cells were starved in serum-free RPMI 1640 medium for 24 h, then detached and resuspended in serum-free RPMI 1640 medium. 5 × 10^5 cells/mL were inoculated into the upper chamber of a 24-well Transwell plate (Corning Inc., Corning, NY, USA), with a volume of 100 μL per well. Then, 100 μL serum-free medium containing 4b or 4c (2, 4 and 8 μM) was added to the upper chamber and the lower chamber was filled with 700 μL medium containing 20% FBS. After incubation for 24 h, H1299 cells on the upper membrane of the transwell were wiped off. The migrated cells were treated with 4% paraformaldehyde for 20 min, stained with 0.1% crystal violet for 20 min and washed three times with PBS. The number of H1299 cells that migrated to the underside of the membrane was counted under the inverted fluorescence microscope. Three randomly selected areas from each transwell were photographed and calculated using Image J.

L02 cells = experiment: CCK-8 assay, normal hepatic cells L02; assay type: cell-based; conditions: Homo sapiens; for inhibition at 2 µM / inhibition at 4 µM / inhibition at 8 µM / inhibition at 16 µM / inhibition at 32 µM: L02, 48 h, L02 cells, read-out: Inhibition Rate %, 48 h; for IC50: normal hepatic cells L02, CCK-8, 48 h, mean ± SD, n = 3
Protocol: NCI-H1299, NCI-H1437 and L02 cells were cultured in a humidified incubator (Thermo Scientific™ Forma™ Direct Heat CO2 Incubator, Waltham, MA, USA) at 37 °C with 5% CO2 in RPMI-1640 supplemented with 10% fetal bovine serum (FBS) and 1% Penicillin Streptomycin. A549 cells were cultured in a humidified incubator at 37 °C with 5% CO2 in Ham’s F-12K supplemented with 10% FBS and 1% Penicillin Streptomycin.
(§2) Three types of lung cells and L02 cells were seeded into 96-well plate at a density of 5 × 10^3 cells per well in the logarithmic growth phase and cultured at 37 °C. The cells were then treated initially with different concentrations of compounds 4a–4n (0, 2, 4, 8, 16 and 32 μM) for an additional 48 h, with three replicate wells each. Next, cell viability was determined according to the instructions of the CCK-8 assay. Then, 10 μL CCK-8 solution was added to each well of the plate and incubated for 1–4 h in the incubator. The absorbance was measured at 450 nm using a microplate reader (Bio-Tek, Winooski, VT, USA). The percentage of viable cells was measured using the following formula where three independent experiments were performed: [(A450sample − A450blank)/(A450control − A450blank)] × 100%.

H1299 cells [4] = experiment: Annexin V-EGFP/PI flow cytometry for cell apoptosis; assay type: cell-based, human; conditions: 48 h
Protocol: H1299 cells were seeded in a 6-well plate at a density of 1 × 10^5 cells/well and incubated for 24 h. The following day, the medium was replaced with fresh medium containing 4b or 4c (2, 4 and 8 μM) and cells were incubated for an additional 48 h. Cell apoptosis was detected using Annexin V-EGFP/PI apoptosis detection kit (Beyotime Biotechnology, Shanghai, China) by flow cytometry. Subsequently, 5 μL of […] Annexin V and 10 μL of PI was added to the cell suspension, gently vortexed and incubated at room temperature in the dark for 20 min. Then, single-cell suspension was prepared followed by flow cytometry (BD Accuri™ C6 Plus, BD Biosciences, Franklin Lake, NJ, USA).

MMP9 = experiment: Western blot, MMP9 in H1299 cells; assay type: cell-based, human; conditions: H1299, with increasing drug concentration
Protocol: as §1

H1299 cells [5] = experiment: Colony formation assay; assay type: cell-based, human; conditions: seven days
Protocol: H1299 cells were seeded in six-well plates at a density of 500 cells per well and treated with 4b or 4c (1, 2 and 4 μM) for seven days. Then, cells were per-fixed with 4% paraformaldehyde for 30 min, stained with 0.1% crystal violet for 15 min and then washed with pure water. After destain with water, the plates were allowed to dry at room temperature overnight. Image J was used to count the number of clone formations.

A549 cells = experiment: CCK-8 assay, A549 cells; assay type: cell-based; conditions: Homo sapiens, A549; CCK-8, 48 h, mean ± SD, n = 3
Protocol: (§3) Next, cell viability was determined according to the instructions of the CCK-8 assay. Then, 10 μL CCK-8 solution was added to each well of the plate and incubated for 1–4 h in the incubator. […] The percentage of viable cells was measured using the following formula where three independent experiments were performed: [(A450sample − A450blank)/(A450control − A450blank)] × 100%.

NCI-H1299 cells = experiment: CCK-8 assay, NCI-H1299 cells; assay type: cell-based, human; conditions: Homo sapiens, NCI-H1299; CCK-8, 48 h, mean ± SD, n = 3
Protocol: as §3

lung cancer cells = experiment: CCK-8 assay, lung cancer cells (line not specified); assay type: cell-based; conditions: read-out: inhibition rate on lung cancer cells
Protocol: as §2

H1299 cells [6] = experiment: DAPI staining for cell apoptosis; assay type: cell-based, human; conditions: H1299, 2, 4 and 8 μM, 48 h
Protocol: H1299 (1.5 × 10^4–2 × 10^4/well) cells were seeded in 24-well plates for 24 h and then treated with 4b or 4c at the concentrations of 2, 4 and 8 μM for 48 h. The cells were fixed for 30 min at room temperature in 4% paraformaldehyde and washed three times in PBS. Finally, every well was stained with DAPI (10 μg/mL) at room temperature for 30 min and washed at least three times in PBS. The fluorescence microscope was used to observe the morphological changes of cell nuclei.

NCI-H1437 cells = experiment: CCK-8 assay, NCI-H1437 cells; assay type: cell-based; conditions: Homo sapiens, NCI-H1437; CCK-8, 48 h, mean ± SD, n = 3
Protocol: as §3

melting point	SMILES	migration closure rate (H1299 cells [1]; H1299, 2 μM)	migration closure rate (H1299 cells [1]; H1299, 4 μM)	migration closure rate (H1299 cells [1]; H1299, 8 μM)	expression level of Bcl-2 protein [2]	expression level of PARP protein [2]	expression level of caspase 3 protein [2]	expression level of caspase 9 protein [2]	expression level of cleaved PARP protein [2]	expression level of cleaved caspase 3 protein [2]	number of cells crossing the microporous membrane (H1299 cells [3])	inhibition at 2 µM (L02 cells)	inhibition at 4 µM (L02 cells)	inhibition at 8 µM (L02 cells)	inhibition at 16 µM (L02 cells)	inhibition at 32 µM (L02 cells)	IC50 (L02 cells)	total apoptotic cell proportion (H1299 cells [4]; H1299, 2 μM)	total apoptotic cell proportion (H1299 cells [4]; H1299, 4 μM)	total apoptotic cell proportion (H1299 cells [4]; H1299, 8 μM)	other results
165 to 166 °C	COc1cc2ncnc(Nc3cccc(-c4cn(Cc5ccccc5Br)nn4)c3)c2cc1OCCCN1CCOCC1 [Compound 4b, N-(3-(1-(2-Bromobenzyl)-1H-1,2,3-triazol-4-yl)phenyl)-7-methoxy-6-(3-morpholinopropoxy)quinazolin-4-amine]	72.59 ± 2.12%	62.42 ± 5.50%	49.79 ± 2.22%	concentration-dependent decrease	concentration-dependent decrease	concentration-dependent decrease	concentration-dependent decrease	increased	increased	significant reduction	9.09 ± 1%	< 20%	29.8 ± 1.27%	39.1 ± 2.18%	64.8 ± 1.84%	20.2 ± 1.26 µM	20.43 ± 1.72%	43.2 ± 2.4%	77.4 ± 3.97%	MMP9 protein expression (MMP9): decrease in MMP9 protein expression; formation of H1299 cell colonies (H1299 cells [5]; 1 μM): significantly inhibit; formation of H1299 cell colonies (H1299 cells [5]; 4 μM): almost completely inhibited; IC50 (A549 cells): 3.94 ± 0.01 µM; IC50 (NCI-H1299 cells): 4.42 ± 0.24 µM; inhibition at 4 µM (lung cancer cells): 50%; nuclear morphology (DAPI staining) (H1299 cells [6]): typical apoptotic features; IC50 (NCI-H1437 cells): 1.56 ± 0.06 µM
202 to 203 °C	COc1cc2ncnc(Nc3cccc(-c4cn(Cc5cccc(F)c5)nn4)c3)c2cc1OCCCN1CCOCC1 [Compound 4c, N-(3-(1-(3-Fluorobenzyl)-1H-1,2,3-triazol-4-yl)phenyl)-7-methoxy-6-(3-morpholinopropoxy)quinazolin-4-amine]	53.26 ± 4.51%	40.04 ± 8.02%	17.90 ± 3.46%	concentration-dependent decrease	concentration-dependent decrease	concentration-dependent decrease	concentration-dependent decrease	increased	increased	significant reduction	7.18 ± 1.22%	< 20%	27.6 ± 2.79%	30.6 ± 1.93%	56.1 ± 5.77%	29.4 ± 5.53 µM	16.37 ± 0.57%	31.2 ± 2.36%	51.77 ± 6.74%	MMP9 protein expression (MMP9): decrease in MMP9 protein expression; formation of H1299 cell colonies (H1299 cells [5]; 1 μM): significantly inhibit; formation of H1299 cell colonies (H1299 cells [5]; 4 μM): almost completely inhibited; IC50 (A549 cells): 4 ± 0.08 µM; IC50 (NCI-H1299 cells): 4.6 ± 0.18 µM; inhibition at 4 µM (lung cancer cells): 50%; nuclear morphology (DAPI staining) (H1299 cells [6]): typical apoptotic features; IC50 (NCI-H1437 cells): 3.51 ± 0.05 µM

Reference: publication PMC10892142, “Synthesis and In Vitro Antitumor Activity Evaluation of Gefitinib-1,2,3-Triazole Derivatives” (Molecules, 2024)
